Data taken from ChEMBL document CHEMBL1157563 (J Med Chem, 2010).
Each block holds one compound with its values, some of them ahead of it. Activity calls are given as the source filed them. The rule behind the calls is not given here.

Key:
[1] = target: Histone deacetylase; type: cell-based, Homo sapiens; settings: hela
Description: Inhibition of HDAC in human HeLa cell nuclear extract

[2] = target: Receptor tyrosine-protein kinase erbB-2 (Homo sapiens, UniProt P04626)
[3] = target: Epidermal growth factor receptor (Homo sapiens, UniProt P00533)
[4] = cells; type: functional, cell-based, Hep 3B2; settings: Homo sapiens, Hep3B
Description: Antiproliferative activity against human Hep3B2 cells after hrs by ATP content assay

[5] = tested on: MDA-MB-468; assay: Antitumor activity against human MDA-MB-468 cells xenografted in nude CD1 mouse at 75 mg/kg, po bid relative to control
[6] = tested on: HepG2; assay: Antiproliferative activity against human HepG2 cells after hrs by ATP content assay; type: functional, cell-based
[7] = tested on: SK-HEP1; assay: cells; type: functional, cell-based; settings: Homo sapiens
Description: Antiproliferative activity against human SKHEP1 cells after hrs by ATP content assay

[8] = tested on: SK-BR-3; assay: cells; type: functional, cell-based; settings: Homo sapiens
Description: Antiproliferative activity against human SK-BR-3 cells after hrs by ATP content assay

[9] = tested on: MCF7; assay: cells; type: functional, cell-based; settings: Homo sapiens
Description: Antiproliferative activity against human MCF7 cells after hrs by ATP content assay

[10] = tested on: MDA-MB-231; assay: Antiproliferative activity against human MDA-MB-231 cells after hrs by ATP content assay; type: functional, cell-based
[11] = tested on: NCI-H358; assay: cells; type: functional, cell-based; settings: Homo sapiens
Description: Antiproliferative activity against human NCI-H358 cells after hrs by ATP content assay

[12] = cells; type: functional, cell-based; settings: Homo sapiens, HCC827
Description: Antiproliferative activity against human HCC827 cells after hrs by ATP content assay

[13] = tested on: NCI-H460; assay: cells; type: functional, cell-based; settings: Homo sapiens
Description: Antiproliferative activity against human H460 cells after hrs by ATP content assay

[14] = tested on: CAPAN-1; assay: cells; type: functional, cell-based; settings: Homo sapiens
Description: Antiproliferative activity against human Capan1 cells after hrs by ATP content assay

[15] = tested on: BXPC-3; assay: cells; type: functional, cell-based; settings: Homo sapiens
Description: Antiproliferative activity against human BxPC3 cells after hrs by ATP content assay

[16] = tested on: HepG2; assay: Antitumor activity against human HepG2 cells xenografted in nude CD1 mouse at 25 mg/kg, po daily relative to control; type: functional
[17] = tested on: HepG2; assay: Antitumor activity against human HepG2 cells xenografted in nude CD1 mouse at 72 mg/kg, iv daily relative to control; type: functional
[18] = tested on: MDA-MB-468; assay: Antitumor activity against human MDA-MB-468 cells xenografted in nude CD1 mouse assessed as tumor regression at 120 mg/kg, iv daily relative to control; type: functional
[19] = tested on: HCT-116; assay: Antitumor activity against human HCT116 cells xenografted in nude CD1 mouse at 60 mg/kg, iv dosed daily on 5-2-5 (on-off-on) schedule relative to control; type: functional
[20] = target: Vascular endothelial growth factor receptor 2 (Homo sapiens, UniProt P35968); assay: Inhibition of KDR
[21] = tested on: A549; assay: Antitumor activity against human A549 cells xenografted in nude CD1 mouse at 120 mg/kg, iv daily relative to control; type: functional
[22] = target: NAD-dependent protein deacetylase sirtuin-2 (Homo sapiens) (UniProt Q8IXJ6); assay: Inhibition of human SIRT2 expressed in Escherichia coli
[23] = target: Proto-oncogene tyrosine-protein kinase Src (Homo sapiens, UniProt P12931); assay: Inhibition of Src
[24] = target: Tyrosine-protein kinase Lyn (Homo sapiens, UniProt P07948); assay: Inhibition of Lyn
[25] = target: NAD-dependent protein deacetylase sirtuin-1 (Homo sapiens) (UniProt Q96EB6); assay: Inhibition of human SIRT1 expressed in Escherichia coli
[26] = tested on: NCI-H358; assay: Antitumor activity against human NCI-H358 cells xenografted in nude CD1 mouse at 15 mg/kg, iv dosed daily on 7-6-5 (on-off-on) schedule relative to control; type: functional
[27] = tested on: NCI-H358; assay: Antitumor activity against human NCI-H358 cells xenografted in nude CD1 mouse at 30 mg/kg, iv dosed daily on 7-6-5 (on-off-on) schedule relative to control; type: functional
[28] = tested on: HPAC; assay: Antitumor activity against human HPAC cells xenografted in nude CD1 mouse at 120 mg/kg, iv daily relative to control; type: functional
[29] = tested on: NCI-H358; assay: Antitumor activity against human NCI-H358 cells xenografted in nude CD1 mouse at 60 mg/kg, iv dosed daily on 7-6-5 (on-off-on) schedule relative to control; type: functional
[30] = tested on: CAL-27; assay: Antitumor activity against human CAL27 cells xenografted in nude CD1 mouse assessed as tumor regression at 120 mg/kg, iv daily relative to control; type: functional
[31] = target: NAD-dependent protein deacetylase sirtuin-3, mitochondrial (Homo sapiens) (UniProt Q9NTG7); assay: Inhibition of human SIRT3 expressed in Escherichia coli
[32] = target: Tyrosine-protein kinase Lck (Homo sapiens, UniProt P06239); assay: Inhibition of Lck
[33] = target: Fibroblast growth factor receptor 2 (Homo sapiens, UniProt P21802); assay: Inhibition of FGFR2
[34] = tested on: HepG2; assay: Antitumor activity against human HepG2 cells xenografted in nude CD1 mouse assessed as tumor regression at 120 mg/kg, iv daily relative to control; type: functional
[35] = target: Receptor-type tyrosine-protein kinase FLT3 (Homo sapiens, UniProt P36888); assay: Inhibition of Flt3

Sequence of Receptor tyrosine-protein kinase erbB-2 (P04626 whole entry): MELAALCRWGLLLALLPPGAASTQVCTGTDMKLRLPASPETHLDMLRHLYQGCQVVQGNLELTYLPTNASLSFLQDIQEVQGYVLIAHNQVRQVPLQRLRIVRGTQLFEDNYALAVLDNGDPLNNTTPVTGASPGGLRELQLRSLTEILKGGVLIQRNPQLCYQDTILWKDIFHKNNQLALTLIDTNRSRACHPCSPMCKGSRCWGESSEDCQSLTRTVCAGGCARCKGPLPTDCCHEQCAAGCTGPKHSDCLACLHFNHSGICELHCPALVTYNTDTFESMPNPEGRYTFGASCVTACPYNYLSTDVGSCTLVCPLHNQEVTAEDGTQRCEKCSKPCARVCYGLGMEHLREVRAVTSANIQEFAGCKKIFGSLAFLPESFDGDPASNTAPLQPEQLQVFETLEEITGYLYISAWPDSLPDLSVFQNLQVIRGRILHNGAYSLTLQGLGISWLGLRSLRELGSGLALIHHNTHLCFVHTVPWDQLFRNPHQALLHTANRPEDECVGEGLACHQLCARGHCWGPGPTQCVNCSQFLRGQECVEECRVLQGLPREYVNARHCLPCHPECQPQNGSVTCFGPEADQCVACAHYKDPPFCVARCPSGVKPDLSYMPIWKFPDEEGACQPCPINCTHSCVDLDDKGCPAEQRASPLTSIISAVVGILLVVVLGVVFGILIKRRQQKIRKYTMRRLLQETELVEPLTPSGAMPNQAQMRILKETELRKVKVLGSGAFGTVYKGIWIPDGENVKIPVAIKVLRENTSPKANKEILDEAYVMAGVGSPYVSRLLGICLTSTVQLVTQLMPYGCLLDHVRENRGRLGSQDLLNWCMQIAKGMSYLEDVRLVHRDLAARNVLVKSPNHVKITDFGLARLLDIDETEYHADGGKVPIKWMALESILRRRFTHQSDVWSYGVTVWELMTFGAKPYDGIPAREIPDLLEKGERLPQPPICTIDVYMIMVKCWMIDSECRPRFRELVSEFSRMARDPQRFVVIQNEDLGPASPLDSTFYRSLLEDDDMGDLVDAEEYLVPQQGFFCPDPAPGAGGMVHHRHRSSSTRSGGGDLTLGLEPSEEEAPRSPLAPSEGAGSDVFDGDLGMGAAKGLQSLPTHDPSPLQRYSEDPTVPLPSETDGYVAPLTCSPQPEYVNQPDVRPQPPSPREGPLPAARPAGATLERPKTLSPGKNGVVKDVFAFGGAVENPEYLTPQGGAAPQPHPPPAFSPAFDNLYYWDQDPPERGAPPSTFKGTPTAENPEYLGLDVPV
Sequence of Epidermal growth factor receptor (P00533 whole entry): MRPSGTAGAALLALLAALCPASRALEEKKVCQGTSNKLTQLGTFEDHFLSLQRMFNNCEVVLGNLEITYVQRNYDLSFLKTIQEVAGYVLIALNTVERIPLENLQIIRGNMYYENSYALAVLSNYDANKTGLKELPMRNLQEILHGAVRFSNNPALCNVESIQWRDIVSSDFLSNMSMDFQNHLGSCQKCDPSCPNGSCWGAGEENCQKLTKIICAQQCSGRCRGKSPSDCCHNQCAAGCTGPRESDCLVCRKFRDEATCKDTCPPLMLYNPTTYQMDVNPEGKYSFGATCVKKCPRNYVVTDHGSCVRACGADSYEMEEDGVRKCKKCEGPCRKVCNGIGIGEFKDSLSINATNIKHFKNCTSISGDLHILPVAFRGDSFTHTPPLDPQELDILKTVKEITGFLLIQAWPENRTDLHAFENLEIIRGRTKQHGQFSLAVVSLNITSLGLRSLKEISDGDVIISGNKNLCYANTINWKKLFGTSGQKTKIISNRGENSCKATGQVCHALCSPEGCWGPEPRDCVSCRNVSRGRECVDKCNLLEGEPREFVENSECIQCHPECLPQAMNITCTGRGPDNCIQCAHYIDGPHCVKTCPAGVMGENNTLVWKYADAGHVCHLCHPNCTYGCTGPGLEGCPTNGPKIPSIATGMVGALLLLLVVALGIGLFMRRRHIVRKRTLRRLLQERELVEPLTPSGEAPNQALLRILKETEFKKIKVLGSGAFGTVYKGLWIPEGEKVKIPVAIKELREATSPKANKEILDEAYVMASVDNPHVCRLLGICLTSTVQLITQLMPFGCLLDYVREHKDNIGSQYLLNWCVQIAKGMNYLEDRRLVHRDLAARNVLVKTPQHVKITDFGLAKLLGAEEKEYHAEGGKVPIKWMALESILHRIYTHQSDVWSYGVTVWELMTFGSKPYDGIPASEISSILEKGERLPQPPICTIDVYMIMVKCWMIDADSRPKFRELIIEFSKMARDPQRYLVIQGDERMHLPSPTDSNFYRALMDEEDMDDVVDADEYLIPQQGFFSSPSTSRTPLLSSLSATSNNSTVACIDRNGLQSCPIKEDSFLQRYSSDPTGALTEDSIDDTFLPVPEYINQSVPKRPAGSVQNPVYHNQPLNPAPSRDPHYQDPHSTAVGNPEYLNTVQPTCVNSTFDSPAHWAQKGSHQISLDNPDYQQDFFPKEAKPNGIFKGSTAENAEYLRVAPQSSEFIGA
Sequence of NAD-dependent protein deacetylase sirtuin-2 (Homo sapiens) (Q8IXJ6 whole entry): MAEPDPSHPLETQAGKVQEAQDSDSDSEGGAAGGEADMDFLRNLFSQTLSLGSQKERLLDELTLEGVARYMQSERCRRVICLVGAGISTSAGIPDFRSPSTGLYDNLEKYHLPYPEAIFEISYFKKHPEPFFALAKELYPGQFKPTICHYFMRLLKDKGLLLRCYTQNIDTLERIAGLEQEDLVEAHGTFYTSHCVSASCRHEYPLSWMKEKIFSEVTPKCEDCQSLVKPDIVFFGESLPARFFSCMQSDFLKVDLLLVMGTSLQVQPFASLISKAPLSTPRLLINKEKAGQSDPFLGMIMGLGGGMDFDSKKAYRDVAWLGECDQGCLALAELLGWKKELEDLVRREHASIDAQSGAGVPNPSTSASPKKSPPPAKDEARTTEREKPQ
Sequence of Vascular endothelial growth factor receptor 2 (P35968 whole entry): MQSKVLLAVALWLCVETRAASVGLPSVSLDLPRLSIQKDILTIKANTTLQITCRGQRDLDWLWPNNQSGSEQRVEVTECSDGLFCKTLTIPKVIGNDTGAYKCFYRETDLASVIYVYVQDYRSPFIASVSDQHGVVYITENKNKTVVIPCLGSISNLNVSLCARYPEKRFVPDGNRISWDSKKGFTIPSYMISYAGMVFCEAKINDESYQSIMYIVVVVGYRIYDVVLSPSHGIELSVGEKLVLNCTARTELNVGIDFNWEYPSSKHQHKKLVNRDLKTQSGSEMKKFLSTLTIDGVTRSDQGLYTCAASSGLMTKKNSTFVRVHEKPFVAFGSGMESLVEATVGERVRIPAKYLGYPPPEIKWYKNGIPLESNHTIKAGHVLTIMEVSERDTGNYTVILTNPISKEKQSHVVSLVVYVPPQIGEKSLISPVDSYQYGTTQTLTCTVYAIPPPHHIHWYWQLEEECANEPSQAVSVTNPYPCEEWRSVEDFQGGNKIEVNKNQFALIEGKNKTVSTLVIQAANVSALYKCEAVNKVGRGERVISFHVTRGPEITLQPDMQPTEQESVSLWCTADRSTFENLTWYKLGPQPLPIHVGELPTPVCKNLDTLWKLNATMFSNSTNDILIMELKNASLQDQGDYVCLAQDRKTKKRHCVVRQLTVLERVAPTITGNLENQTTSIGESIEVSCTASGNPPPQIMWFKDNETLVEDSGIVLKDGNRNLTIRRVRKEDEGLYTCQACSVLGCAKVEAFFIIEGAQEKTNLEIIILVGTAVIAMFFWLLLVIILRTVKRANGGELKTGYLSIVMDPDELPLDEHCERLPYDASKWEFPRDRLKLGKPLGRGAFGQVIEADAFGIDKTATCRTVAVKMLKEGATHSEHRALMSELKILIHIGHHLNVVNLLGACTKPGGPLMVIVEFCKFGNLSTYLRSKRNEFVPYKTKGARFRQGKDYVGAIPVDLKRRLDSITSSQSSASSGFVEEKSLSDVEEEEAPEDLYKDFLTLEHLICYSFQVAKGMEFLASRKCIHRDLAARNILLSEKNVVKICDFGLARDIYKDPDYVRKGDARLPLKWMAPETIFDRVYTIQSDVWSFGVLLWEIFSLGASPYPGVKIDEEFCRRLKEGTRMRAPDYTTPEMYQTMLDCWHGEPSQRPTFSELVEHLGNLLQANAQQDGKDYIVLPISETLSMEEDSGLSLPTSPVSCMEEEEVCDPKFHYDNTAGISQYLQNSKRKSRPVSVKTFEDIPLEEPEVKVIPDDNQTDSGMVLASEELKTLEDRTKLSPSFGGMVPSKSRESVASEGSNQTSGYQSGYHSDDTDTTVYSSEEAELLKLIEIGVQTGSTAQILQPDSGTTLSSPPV
Sequence of Tyrosine-protein kinase Lck (P06239 whole entry): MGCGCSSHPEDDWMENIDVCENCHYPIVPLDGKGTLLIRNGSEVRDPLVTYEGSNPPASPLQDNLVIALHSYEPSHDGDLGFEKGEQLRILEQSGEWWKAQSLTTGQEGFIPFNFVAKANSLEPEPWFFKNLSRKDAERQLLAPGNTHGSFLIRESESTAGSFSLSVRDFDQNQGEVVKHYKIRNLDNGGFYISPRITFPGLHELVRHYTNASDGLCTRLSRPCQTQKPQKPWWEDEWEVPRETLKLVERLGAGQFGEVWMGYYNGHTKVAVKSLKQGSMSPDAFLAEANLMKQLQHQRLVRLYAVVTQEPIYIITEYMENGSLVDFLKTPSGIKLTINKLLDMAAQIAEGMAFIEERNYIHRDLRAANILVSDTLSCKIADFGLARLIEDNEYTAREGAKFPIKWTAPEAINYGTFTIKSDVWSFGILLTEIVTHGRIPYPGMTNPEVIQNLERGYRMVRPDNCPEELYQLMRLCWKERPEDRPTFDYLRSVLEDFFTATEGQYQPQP

- IC50 [1]: 98.4 nM
- IC50 [2]: 27.8 nM
Structure (SMILES): COc1cc2ncnc(N[C@H](C)c3ccccc3)c2cc1OCCCCCCC(=O)NO

- IC50 [1]: 25.7 nM
- IC50 [2]: > 2000 nM
Structure (SMILES): COc1cc2ncnc(N[C@@H](C)c3ccccc3)c2cc1OCCCCCCC(=O)NO

- IC50 [1]: 39.6 nM
- IC50 [3]: 1.99 nM
- IC50 [2]: 24.2 nM
Structure (SMILES): COc1cc2ncnc(Nc3ccc(F)c(Cl)c3)c2cc1SCCCCCCC(=O)NO

- IC50 [1]: 13.2 nM
- IC50 [3]: 4.6 nM
- IC50 [2]: 38.2 nM
Structure (SMILES): C#Cc1cccc(Nc2ncnc3cc(OC)c(OCCCCCC(=O)NO)cc23)c1

- IC50 [4]: 5490 nM
- IC50 [6]: 6270 nM
- IC50 [7]: 5300 nM
- IC50 [8]: 40 nM
- IC50 [9]: 6600 nM
- IC50 [10]: 5400 nM
Structure (SMILES): CS(=O)(=O)CCNCc1ccc(-c2ccc3ncnc(Nc4ccc(OCc5cccc(F)c5)c(Cl)c4)c3c2)o1 [LAPATINIB]
- Activity [5]: 51%

- IC50 [1]: 188 nM
- IC50 [3]: 614 nM
- IC50 [2]: 557 nM
Structure (SMILES): COc1cc2ncnc(NC(C)c3ccc(Cl)cc3)c2cc1OCCCCCCC(=O)NO (single isomer, unassigned)

- IC50 [1]: 3.4 nM
- IC50 [3]: 28.8 nM
- IC50 [2]: 76.5 nM
Structure (SMILES): C#Cc1cc(Nc2ncnc3cc(OC)c(OCCCCCCC(=O)NO)cc23)ccc1F

- IC50 [1]: 40900 nM
- IC50 [3]: 7.1 nM
- IC50 [2]: 10.6 nM
Structure (SMILES): COc1cc2ncnc(Nc3ccc(F)c(Cl)c3)c2cc1OCCC(=O)NO

- IC50 [4]: 600 nM
- IC50 [11]: 710 nM
- IC50 [6]: 290 nM
- IC50 [1]: 6.5 nM
- IC50 [7]: 330 nM
- IC50 [12]: 930 nM
- IC50 [8]: 170 nM
- IC50 [9]: 1100 nM
- IC50 [13]: 900 nM
- IC50 [10]: 370 nM
- IC50 [14]: 1730 nM
- IC50 [15]: 380 nM
- IC50 [2]: 19 nM
Structure (SMILES): COc1cc2ncnc(Nc3ccc(F)c(Cl)c3)c2cc1OCCCCCCC(=O)NO

- IC50 [1]: 5.6 nM
- IC50 [2]: 295 nM
Structure (SMILES): COc1cc2ncnc(NCc3ccc(F)cc3)c2cc1OCCCCCCC(=O)NO

- IC50 [1]: 66.6 nM
- IC50 [3]: 7 nM
- IC50 [2]: 71.2 nM
Structure (SMILES): COc1cc2c(Nc3ccc(F)c(Cl)c3)ncnc2cc1OCCCCCCC(=O)NO

- IC50 [1]: 165.3 nM
- IC50 [3]: 126 nM
- IC50 [2]: 175 nM
Structure (SMILES): COc1cc2ncnc(NC(C)c3ccc(F)cc3)c2cc1OCCCCCCC(=O)NO (single isomer, unassigned)

- IC50 [1]: 8.4 nM
- IC50 [3]: 10.4 nM
- IC50 [2]: 24 nM
Structure (SMILES): COCCOc1cc2ncnc(Nc3ccc(F)c(Cl)c3)c2cc1OCCCCCCC(=O)NO

- IC50 [1]: 4.4 nM
- IC50 [3]: 84.2 nM
- IC50 [2]: 43.5 nM
Structure (SMILES): O=C(CCCCCCOc1ccc2ncnc(Nc3ccc(F)c(Cl)c3)c2c1)NO

- IC50 [1]: 34.1 nM
- IC50 [3]: 8.2 nM
- IC50 [2]: 51.6 nM
Structure (SMILES): C#Cc1cccc(Nc2ncnc3cc(OCCCCCCC(=O)NO)c(OC)cc23)c1

- IC50 [1]: 551 nM
- IC50 [3]: 9.4 nM
- IC50 [2]: 15 nM
Structure (SMILES): COc1cc2ncnc(Nc3ccc(F)c(Cl)c3)c2cc1OCCCCC(=O)NO

Structure (SMILES): C#Cc1cccc(Nc2ncnc3cc(OCCOC)c(OCCOC)cc23)c1 [ERLOTINIB]
- Activity [16]: 50.8%

- IC50 [6]: 1660 nM
- IC50 [10]: 2110 nM
Structure (SMILES): O=C(CCCCCCC(=O)Nc1ccccc1)NO [VORINOSTAT]
- Activity [17]: 26%

- IC50 [1]: 121.7 nM
- IC50 [3]: 15.4 nM
- IC50 [2]: > 2000 nM
Structure (SMILES): COc1cc2ncnc(Nc3ccc(F)c(Cl)c3)c2cc1S(=O)(=O)CCCCCCC(=O)NO

- IC50 [20]: 849 nM
- IC50 [4]: 230 nM
- IC50 [11]: 400 nM
- Activity [22]: inactive
- IC50 [23]: 11000 nM
- IC50 [24]: 840 nM
- Activity [25]: inactive
- IC50 [6]: 130 nM
- IC50 [7]: 220 nM
- IC50 [12]: 600 nM
- IC50 [8]: 40 nM
- IC50 [9]: 550 nM
- IC50 [13]: 700 nM
- Activity [31]: inactive
- IC50 [10]: 100 nM
- IC50 [14]: 800 nM
- IC50 [32]: 5910 nM
- IC50 [15]: 270 nM
- IC50 [33]: 3430 nM
- IC50 [35]: 1500 nM
Structure (SMILES): C#Cc1cccc(Nc2ncnc3cc(OC)c(OCCCCCCC(=O)NO)cc23)c1 [CUDC-101]
- Activity [18]: -13.7%
- Activity [19]: 35.3%
- Activity [21]: 35.9%
- Activity [26]: 41.9%
- Activity [27]: 10.3%
- Activity [28]: 35.1%
- Activity [29]: 6.5%
- Activity [30]: -36.5%
- Activity [34]: -21.3%

- IC50 [1]: 4.2 nM
- IC50 [3]: 99.4 nM
- IC50 [2]: 225 nM
Structure (SMILES): COc1cc2ncnc(NCc3ccccc3)c2cc1OCCCCCCC(=O)NO

- IC50 [1]: 11.3 nM
- IC50 [3]: 72 nM
- IC50 [2]: 478 nM
Structure (SMILES): COc1cc2ncnc(NCc3ccc(Cl)c(F)c3)c2cc1OCCCCCCC(=O)NO

- IC50 [1]: > 100000 nM
- IC50 [3]: 7.8 nM
- IC50 [2]: 12.4 nM
Structure (SMILES): COc1cc2ncnc(Nc3ccc(F)c(Cl)c3)c2cc1OCCCC(=O)NO

- IC50 [1]: 58.1 nM
- IC50 [3]: 9.08 nM
- IC50 [2]: 10.1 nM
Structure (SMILES): COc1cc2ncnc(Nc3ccc(OCc4cccc(F)c4)c(Cl)c3)c2cc1OCCCCCCC(=O)NO

- IC50 [1]: 15.3 nM
- IC50 [3]: 2.1 nM
- IC50 [2]: 20.1 nM
Structure (SMILES): COc1cc2ncnc(Nc3ccc(F)c(Cl)c3)c2cc1NC(=O)CCCCCCC(=O)NO

- IC50 [1]: 421 nM
- IC50 [2]: 38.4 nM
Structure (SMILES): C#Cc1cccc(Nc2ncnc3cc(OC)c(OCCCCC(=O)NO)cc23)c1

- IC50 [1]: 31 nM
- IC50 [3]: 3.4 nM
- IC50 [2]: 20 nM
Structure (SMILES): COc1cc2ncnc(Nc3ccc(F)c(Cl)c3)c2cc1OCCCCCC(=O)NO
